In US5177077A, “1,4-disubstituted piperazines” (Novo Nordisk A/S, priority 1990, dated 1993) one finds IC50, ED50 and maximum motility counts data, which are given here for four compounds.

The ED50 is the dose at which the effect has come halfway, by size or by number of responders. Read a low ED50 as an effect at a small dose.

Where two headings read alike, the source gives them in different places.

One assay deals with T1, DA-uptake complex (Rattus norvegicus, UniProt P23977).
T1 construct: in a striatal membrane preparation; from tissue; host or cells: striatal membranes
Nature of the assay: Test 1: inhibition of 3H-GBR 12935 binding to the DA-uptake complex in a striatal membrane preparation. On the procedure: The compounds were tested for their ability to inhibit the binding of 3H-GBR 12935 to the DA-uptake complex in a striatal membrane preparation following the method described by Andersen (Eur. J. Pharmacol. 166: 493-504, 1989).

For the next assay, the system named is motility of mice. Nature of the assay: Test 2: increase of motility of mice (photocell crossings). The class given is in vivo, Male NMRI mice. The conditions noted are these: for ED50: Mus musculus, po, lowest ED50 determined at a 20 min interval during the 360 min test period, drugs administered orally. As for the experimental part:
The compounds were also tested for their ability to increase the motility of mice following intravenous administration using the method outlined below.
Male NMRI mice are used (20±2 g). The animals are housed 20-30 per cage under constant temperature (20°±1°) and relative humidity (40-60%). The animals are brought into the experimental room in the afternoon, the day before they undergo testing.
The experimentally-naive mice are acclimatized by being placed in a plexiglass box (WLH: 20×20×38 cm), four per box, for a 120 min period, and then treated with the test compound whereafter they are replaced in the plexiglass box.
The plexiglass box is equipped with a frame of photocells (spaced equidistantly) which are situated so as to detect locomotor behaviour of the animals (1 cm above the floor). The photocell chamber is housed in an sound-insulated, dimly-lit, ventilated chest. As a measure of exploratory behaviour, the number of photocell crossings in a 360 min period is detected using a minicomputer. Testing is made between 7:00 and 17.00 h.
Drugs are administered orally simultaneously with start of testing; N=4/dose; 4-5 doses of test drug is given in a volume of 10 ml/kg.
Computer programmed log-probit methods are used to generate an ED50 in mg/kg using as minimum the control result, and as maximum values are used 7700 (this latter value has been experimentally found as the maximum motility counts after d-amphetamine in a 20 min period).
The test result is the lowest ED50 value determined at a 20 min interval during the 360 min test period.

T1 sequence (P23977 whole entry, one chain of several): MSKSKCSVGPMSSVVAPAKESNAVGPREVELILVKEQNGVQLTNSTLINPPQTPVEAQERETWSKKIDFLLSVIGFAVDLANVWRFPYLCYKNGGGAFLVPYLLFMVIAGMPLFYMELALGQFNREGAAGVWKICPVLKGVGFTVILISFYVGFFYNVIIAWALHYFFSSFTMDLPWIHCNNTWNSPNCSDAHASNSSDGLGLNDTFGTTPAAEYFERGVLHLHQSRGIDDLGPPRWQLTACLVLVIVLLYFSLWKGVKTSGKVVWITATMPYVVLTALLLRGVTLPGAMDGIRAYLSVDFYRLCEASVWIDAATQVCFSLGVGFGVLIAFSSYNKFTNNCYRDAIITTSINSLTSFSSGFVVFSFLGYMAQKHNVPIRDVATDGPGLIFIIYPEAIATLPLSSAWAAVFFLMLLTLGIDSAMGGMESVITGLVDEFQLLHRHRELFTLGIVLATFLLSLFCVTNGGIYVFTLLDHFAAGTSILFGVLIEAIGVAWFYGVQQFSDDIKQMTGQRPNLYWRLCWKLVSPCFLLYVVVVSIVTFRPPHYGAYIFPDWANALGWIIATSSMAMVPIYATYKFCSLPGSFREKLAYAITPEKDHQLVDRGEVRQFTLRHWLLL

On to `Cc1ccsc1C(OCCN1CCN(CCCc2ccccc2)CC1)c1ccc(F)cc1` (stereo not shown) [Example 1], for which the IC50 at DA-uptake complex (striatal membrane preparation, method of Andersen 1989, read-out: Test 1 (inhibition of 3H-GBR 12935 binding)) came out at 9 nM. In addition, in the assay with motility of mice, the ED50 turned out to be 30 mg/kg.
`Fc1ccc(C(OCCN2CCN(CC=Cc3ccco3)CC2)c2cccs2)cc1` (stereo not shown) [Example 2, 1-[2-((4-fluorophenyl)-(2-thienyl)methoxy)ethyl]-4-[3-(2-furyl)-2-propenyl]piperazine] gave an IC50 at DA-uptake complex of 4.7 nM. The ED50 in the assay on motility of mice came out at 17.4 mg/kg.
Consider `Fc1ccc(C(OCCN2CCN(CCCc3ccccc3)CC2)c2ccsc2)cc1` (stereo not shown) [Example 3, 1-[2-((4-fluorophenyl)-(3-thienyl)methoxy)ethyl]-4-(3-phenylpropyl)piperazine], for which the IC50 on DA-uptake complex is 3.7 nM. This compound had an ED50 with motility of mice of 32 mg/kg.
`C[C@H](N)Cc1ccccc1` [d-amphetamine, reference compound] returned a maximum motility counts in the assay on motility of mice (in a 20 min period, used as maximum for the log-probit ED50) of 7700.
